Measurements as given in ChEMBL document CHEMBL1201862, “PubChem BioAssay data set” (2004).
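Five compound concentrations were applied to cells in 96-well plates for 48 hours; endpoints were derived by simple linear interpolation of the resulting dose-response curve. GI50 = concentration required for 50% inhibition of growth.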 Calls of active or inactive are those of the source. No stated cut-off is given here; in the data, active = GI50 up to about 1.1 µM and inactive = higher.

Tests used:
Experiment in all cases: NCI tumour cell line growth inhibition, 48 h
ACHN = test system: ACHN
HCT-116 = test system: HCT-116
SNB-19 = test system: SNB-19
UO-31 = test system: UO-31
SK-MEL-2 = test system: SK-MEL-2
COLO 205 = test system: COLO 205
NCI-H23 = test system: NCI-H23
786-0 = test system: 786-0
KM12 = test system: KM12
UACC-257 = test system: UACC-257
NCI/ADR-RES = test system: NCI/ADR-RES
A498 = test system: A498
HCC 2998 = test system: HCC 2998
UACC-62 = test system: UACC-62
SR = test system: SR
OVCAR-4 = test system: OVCAR-4
IGROV-1 = test system: IGROV-1
CCRF-CEM = test system: CCRF-CEM
HCT-15 = test system: HCT-15
DU-145 = test system: DU-145
U-251 = test system: U-251
EKVX = test system: EKVX
SK-MEL-5 = test system: SK-MEL-5
SW-620 = test system: SW-620
MCF7 = test system: MCF7
BT-549 = test system: BT-549
NCI-H460 = test system: NCI-H460
OVCAR-3 = test system: OVCAR-3
HL-60 = test system: HL-60
A549 = test system: A549
SF-295 = test system: SF-295
K562 = test system: K562
SK-MEL-28 = test system: SK-MEL-28
SNB-75 = test system: SNB-75
OVCAR-5 = test system: OVCAR-5
HT-29 = test system: HT-29
SF-268 = test system: SF-268
NCI-H522 = test system: NCI-H522
SK-OV-3 = test system: SK-OV-3
RXF 393 = test system: RXF 393
M14 = test system: M14
MDA-N = test system: MDA-N
CAKI-1 = test system: CAKI-1
Malme-3M = test system: Malme-3M
TK-10 = test system: TK-10
NCI-H226 = test system: NCI-H226
HOP-92 = test system: HOP-92
RPMI-8226 = test system: RPMI-8226
MOLT-4 = test system: MOLT-4
MDA-MB-435 = test system: MDA-MB-435
SN12C = test system: SN12C
HOP-62 = test system: HOP-62
SF-539 = test system: SF-539
MDA-MB-231 = test system: MDA-MB-231
LOX IMVI = test system: LOX IMVI
PC-3 = test system: PC-3
T47D = test system: T47D
Hs-578T = test system: Hs-578T
OVCAR-8 = test system: OVCAR-8
SNB-78 = test system: SNB-78
DMS-273 = test system: DMS-273
DMS-114 = test system: DMS-114
LXFL 529 = test system: LXFL 529
DLD-1 = test system: DLD-1
M19-MEL = test system: M19-MEL
HOP-18 = test system: HOP-18
KM-20L2 = test system: KM-20L2

Measured: GI50

COc1cc(Br)cc2nc(-c3cccs3)oc12
16.2 µM: HCT-15
inactive: ACHN > 83.8 µM | HCT-116 > 70.6 µM | SNB-19 > 83 µM | UO-31 > 54.7 µM | SK-MEL-2 > 100 µM | COLO 205 > 100 µM | NCI-H23 > 68.1 µM | 786-0 > 56 µM | KM12 > 100 µM | UACC-257 > 100 µM | NCI/ADR-RES > 100 µM | A498 > 55.3 µM | HCC 2998 > 100 µM | UACC-62 > 100 µM | SR > 100 µM | OVCAR-4 > 26.9 µM | IGROV-1 > 43.2 µM | CCRF-CEM > 100 µM | DU-145 > 100 µM | U-251 42.1 µM | EKVX > 61.9 µM | SK-MEL-5 74.1 µM | SW-620 > 100 µM | MCF7 2.3 µM | BT-549 > 67.8 µM | NCI-H460 > 100 µM | OVCAR-3 > 100 µM | HL-60 > 100 µM | A549 > 100 µM | SF-295 55.7 µM | K562 > 100 µM | SK-MEL-28 > 100 µM | SNB-75 > 51.3 µM | OVCAR-5 > 100 µM | HT-29 > 100 µM | SF-268 > 62.4 µM | NCI-H522 99.8 µM | SK-OV-3 > 90.6 µM | RXF 393 45.6 µM | M14 > 100 µM | MDA-N > 100 µM | CAKI-1 > 86.5 µM | Malme-3M > 100 µM | TK-10 31.8 µM | NCI-H226 > 100 µM | HOP-92 > 63.5 µM | RPMI-8226 > 100 µM | MOLT-4 > 100 µM | MDA-MB-435 > 100 µM | SN12C > 100 µM | HOP-62 24.5 µM | SF-539 75.9 µM | MDA-MB-231 > 42.2 µM | LOX IMVI > 100 µM | PC-3 > 100 µM | T47D 6.15 µM | Hs-578T 31.3 µM | OVCAR-8 > 100 µM

CC1=C[P+](Cc2ccccc2)(c2ccccc2)CC1 (stereo not given)
inactive: SK-MEL-2 78.7 µM | COLO 205 31.7 µM | NCI-H23 97.1 µM | KM12 85.3 µM | UACC-257 27.8 µM | SNB-78 > 100 µM | DMS-273 80.9 µM | UACC-62 64.3 µM | SR 74.3 µM | DMS-114 28.6 µM | OVCAR-4 > 100 µM | LXFL 529 37.7 µM | EKVX 80.2 µM | SK-MEL-5 30.9 µM | OVCAR-3 43.2 µM | DLD-1 > 100 µM | HL-60 30.1 µM | SF-295 > 100 µM | K562 93.8 µM | SNB-75 61.1 µM | HT-29 65.2 µM | NCI-H522 67.5 µM | M14 71.6 µM | RPMI-8226 24.1 µM | M19-MEL 31.8 µM | LOX IMVI 77.3 µM

CC1[C@@H]2CC=C3[C@H]4CCC5Cc6nc7c(nc6C[C@@]5(C)C4CC(=O)[C@]32CO[C@]12OC(C)(C)CC2O)CC1CC[C@@H]2C3=C[C@H]4O[C@@]5(O[C@@](C)(CO)C[C@@H]5O)C(C)[C@@]4(O)[C@]3(C)[C@@H](O)CC2[C@]1(C)C7 (stereo not given in full)
active: NCI-H23 0.0055 µM | DMS-273 0.000105 µM | A498 0.00143 µM | HCC 2998 0.0955 µM | DMS-114 0.000172 µM | NCI-H522 0.00121 µM | TK-10 0.034 µM | NCI-H226 0.00273 µM

CCCCCCCOc1ccc(/C=C\c2cc[n+](CCCCCCCC[n+]3ccc(/C=C\c4ccc(OCCCCCCC)cc4)cc3)cc2)cc1
inactive: ACHN 38.2 µM | HCT-116 13.6 µM | SNB-19 7.87 µM | UO-31 19.5 µM | SK-MEL-2 17.6 µM | COLO 205 10.7 µM | NCI-H23 28.2 µM | 786-0 14.7 µM | KM12 15 µM | UACC-257 86.1 µM | SNB-78 > 100 µM | DMS-273 4.3 µM | A498 26.6 µM | UACC-62 35.3 µM | DMS-114 21.6 µM | OVCAR-4 21.6 µM | IGROV-1 11.3 µM | CCRF-CEM > 100 µM | LXFL 529 13.3 µM | U-251 7.46 µM | EKVX > 100 µM | SK-MEL-5 14.6 µM | HOP-18 15.1 µM | NCI-H460 5.51 µM | OVCAR-3 19.1 µM | DLD-1 21.8 µM | HL-60 4.3 µM | A549 8.55 µM | SF-295 13.3 µM | SK-MEL-28 17.6 µM | SNB-75 > 100 µM | OVCAR-5 17.7 µM | HT-29 13.8 µM | SF-268 23.8 µM | NCI-H522 2.64 µM | SK-OV-3 28.1 µM | RXF 393 > 100 µM | KM-20L2 29.6 µM | M14 17.5 µM | CAKI-1 33.5 µM | Malme-3M 18.7 µM | TK-10 23.9 µM | HOP-92 > 100 µM | RPMI-8226 7.29 µM | MOLT-4 15.2 µM | M19-MEL 21.9 µM | SN12C 20 µM | HOP-62 26.6 µM | SF-539 65.5 µM | LOX IMVI 25 µM | OVCAR-8 20.7 µM
19.9 µM: HCT-15
